Measured values reported in US20240374558A1, “PREPARATION OF PHENE[…] […] STEREOISOMERS THEREOF AND PRECURSORS THEREOF” (priority 2022, published 2024).
Counter-ions that a name gives are not always drawn.

How the values were obtained:
Assay type in all cases: cell-based
Kc4.3/ChIP2 = target: T1, Kc4.3/ChIP2 (Homo sapiens, UniProt Q9UK17); experiment: hKv4.3/hKChIP2 Potassium Channel Assay, Qube APC; settings: Antagonist mode; HEK-Kv4.3/KChIP2; test compound
T1 construct: host or cells: HEK
T1 sequence (Q9UK17 1-655): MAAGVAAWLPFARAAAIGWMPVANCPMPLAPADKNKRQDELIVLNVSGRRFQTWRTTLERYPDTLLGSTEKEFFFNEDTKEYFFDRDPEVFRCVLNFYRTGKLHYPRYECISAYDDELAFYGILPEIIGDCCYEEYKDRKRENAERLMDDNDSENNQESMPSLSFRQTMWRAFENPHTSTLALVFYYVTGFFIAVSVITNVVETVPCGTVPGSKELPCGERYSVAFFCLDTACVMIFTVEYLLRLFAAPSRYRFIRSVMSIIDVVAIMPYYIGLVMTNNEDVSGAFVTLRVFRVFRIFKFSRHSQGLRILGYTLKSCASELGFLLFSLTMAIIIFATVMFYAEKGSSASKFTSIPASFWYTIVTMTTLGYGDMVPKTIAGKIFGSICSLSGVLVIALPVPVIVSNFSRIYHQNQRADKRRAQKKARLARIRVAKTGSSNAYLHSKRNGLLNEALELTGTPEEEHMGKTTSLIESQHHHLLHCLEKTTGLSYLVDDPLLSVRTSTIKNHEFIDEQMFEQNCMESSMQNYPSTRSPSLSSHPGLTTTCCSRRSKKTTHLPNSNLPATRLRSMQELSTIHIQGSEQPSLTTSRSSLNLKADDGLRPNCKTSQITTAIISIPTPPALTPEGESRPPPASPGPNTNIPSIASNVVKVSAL
T1 sequence (Q9NS61 1-270 partner): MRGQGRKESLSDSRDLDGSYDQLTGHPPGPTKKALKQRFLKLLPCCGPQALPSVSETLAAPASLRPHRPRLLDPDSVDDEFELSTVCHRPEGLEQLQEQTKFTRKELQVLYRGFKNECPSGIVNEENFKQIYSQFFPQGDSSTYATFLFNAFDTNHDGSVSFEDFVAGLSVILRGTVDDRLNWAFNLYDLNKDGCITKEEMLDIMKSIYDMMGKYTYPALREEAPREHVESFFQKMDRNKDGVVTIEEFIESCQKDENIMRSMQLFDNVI
Method: (§1) Electrophysiological assays were conducted to profile three compounds ((R)-methylone, (S)-methylone, or racemic methylone) for activities on the ion channel targets specified below using the Qube electrophysiological platform. Where presented, IC50 values were determined by a non-linear, least squares regression analysis. Reference standards were run as an integral part of each assay to ensure the validity of the results obtained.
(§2) Ion Channels tested were Eurofins Panel Part Number: CPROFullQB2DR Voltage-Gated Sodium: HEK-Nav1.5 (Peak), HEK-Nav1.5 (Late, Antagonist) Voltage-Gated Potassium: HEK-Kv4.3/KChIP2, CHO-hERG, CHO-KCNQ1/minK Voltage-Gated Calcium: HEK-Cav1.2 Inward-Rectifying Voltage-Gated Potassium: HEK-Kir2.1.
(§3) Methods employed in this study have been developed and validated with reliability and reproducibility by Eurofins. Assays were performed under conditions below. [0217] hNavL.5 Sodium Channel Assay—Qube APC Onset and steady state block of peak Nay1.5 current is measured using a pulse pattern, repeated every 5 sec, consisting of a hyperpolarizing pulse to −120 mV for a 200 ms duration, depolarization to −15 mV amplitude for a 40 ms duration, followed by step to 40 mV for 200 ms and finally a 100 ms ramp (1.2 V/s) to a holding potential of −80 mV. Peak current is measured during the step to −15 mV. […] Onset and steady state block of hKv4.3 current is measured using a pulse pattern from −80 mV to 40 mV amplitude for a 110 ms duration, and finally a 100 ms ramp (1.2 V/s) to −80 mV. […] [0220] hNav1.5 Late Current Sodium Channel Assay—Qube APC Onset and steady state block of Late Nay1.5 current is measured using a pulse pattern, repeated every 5 sec, consisting of a hyperpolarizing pulse to −120 mV for a 200 ms duration, depolarization to −15 mV amplitude for a 40 ms duration, followed by step to 40 mV for 200 ms and finally a 100 ms ramp (1.2 V/s) to a holding potential of −80 mV. Late current is measured as charge current elicited during the ramp with 50 nM ATXII.

Nav1.5 Late Current = target: T2, Nav1.5 Late Current (Homo sapiens, UniProt Q14524); experiment: hNav1.5 Late Current Sodium Channel Assay, Qube APC; settings: Antagonist mode; HEK-Nav1.5 (Late), 50 nM ATXII; test compound
T2 construct: host or cells: HEK-293
T2 sequence (Q14524 whole entry): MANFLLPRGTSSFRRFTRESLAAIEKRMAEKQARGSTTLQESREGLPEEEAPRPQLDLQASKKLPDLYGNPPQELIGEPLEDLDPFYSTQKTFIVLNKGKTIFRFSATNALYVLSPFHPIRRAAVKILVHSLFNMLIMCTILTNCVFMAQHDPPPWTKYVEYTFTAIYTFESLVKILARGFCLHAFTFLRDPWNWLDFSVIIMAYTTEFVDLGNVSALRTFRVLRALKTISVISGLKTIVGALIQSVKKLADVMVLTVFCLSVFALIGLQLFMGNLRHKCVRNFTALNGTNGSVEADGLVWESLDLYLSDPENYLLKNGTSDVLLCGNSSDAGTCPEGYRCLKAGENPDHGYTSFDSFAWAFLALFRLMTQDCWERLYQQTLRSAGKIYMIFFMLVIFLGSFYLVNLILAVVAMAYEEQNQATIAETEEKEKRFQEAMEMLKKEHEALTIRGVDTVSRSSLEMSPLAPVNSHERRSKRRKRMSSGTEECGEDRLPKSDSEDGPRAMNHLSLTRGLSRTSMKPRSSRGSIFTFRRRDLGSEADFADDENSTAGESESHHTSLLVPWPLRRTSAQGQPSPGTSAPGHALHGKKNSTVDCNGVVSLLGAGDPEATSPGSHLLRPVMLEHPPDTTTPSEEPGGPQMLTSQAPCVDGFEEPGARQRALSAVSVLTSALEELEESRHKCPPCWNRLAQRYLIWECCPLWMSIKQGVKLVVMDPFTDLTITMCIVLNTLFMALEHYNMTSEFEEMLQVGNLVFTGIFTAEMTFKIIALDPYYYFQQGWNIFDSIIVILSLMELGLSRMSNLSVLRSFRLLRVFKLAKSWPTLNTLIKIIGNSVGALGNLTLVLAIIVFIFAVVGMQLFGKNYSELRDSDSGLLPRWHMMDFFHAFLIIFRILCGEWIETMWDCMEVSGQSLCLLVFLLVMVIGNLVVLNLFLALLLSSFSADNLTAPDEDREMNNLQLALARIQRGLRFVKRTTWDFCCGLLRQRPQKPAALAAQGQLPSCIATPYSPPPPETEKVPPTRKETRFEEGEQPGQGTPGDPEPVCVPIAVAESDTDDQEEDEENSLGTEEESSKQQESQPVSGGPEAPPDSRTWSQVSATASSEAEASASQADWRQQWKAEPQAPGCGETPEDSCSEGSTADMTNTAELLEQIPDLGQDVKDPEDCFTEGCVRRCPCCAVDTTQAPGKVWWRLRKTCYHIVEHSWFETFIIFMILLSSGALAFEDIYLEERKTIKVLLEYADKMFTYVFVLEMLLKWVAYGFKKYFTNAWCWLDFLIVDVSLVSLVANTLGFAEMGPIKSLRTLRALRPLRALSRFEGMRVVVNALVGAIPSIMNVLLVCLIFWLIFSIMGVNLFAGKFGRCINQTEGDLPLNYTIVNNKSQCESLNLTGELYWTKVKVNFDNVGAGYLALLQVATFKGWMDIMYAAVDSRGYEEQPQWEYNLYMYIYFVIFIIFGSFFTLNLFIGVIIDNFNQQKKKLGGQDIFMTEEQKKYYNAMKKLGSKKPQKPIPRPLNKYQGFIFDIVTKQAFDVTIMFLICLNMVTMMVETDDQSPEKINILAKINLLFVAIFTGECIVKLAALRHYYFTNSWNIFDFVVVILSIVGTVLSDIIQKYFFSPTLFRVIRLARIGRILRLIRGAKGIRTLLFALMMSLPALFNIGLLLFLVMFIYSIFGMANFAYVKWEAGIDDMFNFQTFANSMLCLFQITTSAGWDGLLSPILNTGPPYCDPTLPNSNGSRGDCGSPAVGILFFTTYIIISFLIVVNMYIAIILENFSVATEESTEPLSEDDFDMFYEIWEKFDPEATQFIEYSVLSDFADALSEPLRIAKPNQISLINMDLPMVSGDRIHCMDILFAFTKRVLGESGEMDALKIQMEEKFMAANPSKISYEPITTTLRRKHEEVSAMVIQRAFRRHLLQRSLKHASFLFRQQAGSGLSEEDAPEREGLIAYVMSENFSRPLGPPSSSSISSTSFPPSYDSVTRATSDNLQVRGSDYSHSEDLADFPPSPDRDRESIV
Method: as §1, §2, §3

Nav1.5 = target: T3, Nav1.5 (Homo sapiens, UniProt Q14524); experiment: hNav1.5 Sodium Channel Assay (peak), Qube APC; settings: Antagonist mode; HEK-Nav1.5 (Peak); test compound
T3 construct: host or cells: HEK-293
T3 sequence (Q14524 whole entry): as above
Method: Where presented, IC50 values were determined by a non-linear, least squares regression analysis.
Recombinant HEK-293 cells stably transfected with human NavL.5 cDNA, recombinant HEK293 cell line expressing the human Cavl.2 (L-type voltage gated calcium channel, hCavl.2 alC/02a/a281, and recombinant CHO-K1 cells stably transfected with human hERG cDNA were used separately in each of these assays.
as §2
Methods employed in this study have been developed and validated with reliability and reproducibility by Eurofins. Assays were performed under conditions below. […] Peak current is measured during the step to −15 mV. […] Onset and steady state block of hKv4.3 current is measured using a pulse pattern from −80 mV to 40 mV amplitude for a 110 ms duration, and finally a 100 ms ramp (1.2 V/s) to −80 mV. This paradigm is delivered once every 5s to monitor the current amplitude. […] Cavl.2 currents are evoked by a 50 ms pulse to −100 mV followed by a 200 ms pulse to +20 mV before returning to the holding potential of −90 mV. This paradigm is delivered three times every 60s to monitor the current amplitude. [0220] hNav1.5 Late Current Sodium Channel Assay—Qube APC Onset and steady state block of Late Nay1.5 current is measured using a pulse pattern, repeated every 5 sec, consisting of a hyperpolarizing pulse to −120 mV for a 200 ms duration, depolarization to −15 mV amplitude for a 40 ms duration, followed by step to 40 mV for 200 ms and finally a 100 ms ramp (1.2 V/s) to a holding potential of −80 mV. Late current is measured as charge current elicited during the ramp with 50 nM ATXII.

SMILES | Estimated IC50 (Kc4.3/ChIP2) | Estimated IC50 (Nav1.5 Late Current) | Estimated IC50 (Nav1.5)
CN[C@@H](C)C(=O)c1ccc2c(c1)OCO2 [(S)-methylone] | N/C (N/C indicates observed mean inhibition was <25%) | N/C (N/C indicates observed mean inhibition was <25%) | N/C (N/C indicates observed mean inhibition was <25%)
CN[C@H](C)C(=O)c1ccc2c(c1)OCO2 [(R)-methylone] | N/C (N/C indicates observed mean inhibition was <25%) | N/C (N/C indicates observed mean inhibition was <25%) | N/C (N/C indicates observed mean inhibition was <25%)
CNC(C)C(=O)c1ccc2c(c1)OCO2 (stereo not drawn) [Methylone HCl, methylone HCl] | N/C (N/C indicates observed mean inhibition was <25%) | N/C (N/C indicates observed mean inhibition was <25%) | N/C (N/C indicates observed mean inhibition was <25%)
